Test results taken from US7666868B2, “N-sulphonylpyrroles and their use as histone deacetylase inhibitors” (4SC AG, priority 2005, dated 2010).

System: HeLa cervical carcinoma cell line
Test: Cellular cytotoxicity assay (Alamar Blue / Resazurin)
Format: cell-based
Conditions: Homo sapiens; HeLa cells, 48 hours incubation; read-out: IC50 (anti-proliferative/cytotoxic potency)
Method: The anti-proliferative activity of the histone deacetylase inhibitory compounds as described herein, is evaluated with the HeLa cervical carcinoma cell line (ATCC CCL2) using the Alamar Blue (Resazurin) cell viability assay (O'Brien et al. Eur J Biochem 267, 5421-5426, 2000). Resazurin is reduced to the fluorescent resorufin by cellular dehydrogenase activity, correlating with viable, proliferating cells. Test compounds are dissolved as 10 mM solutions in dimethylsulfoxide (DMSO) and subsequently diluted in semi-logarithmic steps. HeLa cells are seeded into 96 well flat bottom plates at a density of 3000 cells per well in a volume of 200 μl per well. 24 hours after seeding 1 μl each of the compound dilutions are added into each well of the 96 Well plate. Each compound dilution is tested as quadruplicates. Wells containing untreated control cells are filled with 200 μl DMEM medium containing 0.5% v:v DMSO. The cells are then incubated with the substances for 48 hours at 37° C. in a humidified atmosphere containing 5% carbon dioxide. To determine the viability of the cells, 20 μl of an Resazurin solution (Sigma; 90 mg/l) are added. After 4 hours incubation at 37° C. the fluorescence is measured at an extinction of 544 nm and an emission of 590 nm. For the calculation of the cell viability the emission value from untreated cells is set as 100% viability and the emission rates of treated cells are set in relation to the values of untreated cells. Viabilites are expressed as % values. The corresponding IC50 values of the compounds for cytotoxic activity are determined from the concentration-effect curves by means of non-linear regression.

For CN(C)Cc1cccc(-c2ccc(S(=O)(=O)n3ccc(/C=C/C(=O)Nc4ccccc4N)c3)cc2)c1 [Compound 96, (E)-N-(2-Amino-phenyl)-3-[1-(3′-dimethylaminomethyl-biphenyl-4-sulfonyl)-1H-pyrrol-3-yl]-acrylamide], which IC50 is on record?
Its IC50 is 0.014 to 6.7 µM.

Which IC50 does the source give for CC(=O)NCc1ccc(-c2ccc(S(=O)(=O)n3ccc(/C=C/C(=O)Nc4ccccc4N)c3)cc2)cc1 [Compound 97, (E)-3-{1-[4′-(Acetylamino-methyl)-biphenyl-4-sulfonyl]-1H-pyrrol-3-yl}-N-(2-amino-phenyl)-acrylamide] here?
The IC50 was 0.014 to 6.7 µM.

O=C(/C=C/c1ccn(S(=O)(=O)c2ccc(-c3ccc(O)cc3)cc2)c1)NO [Compound 67, (E)-N-Hydroxy-3-[1-(4′-hydroxy-biphenyl-4-sulfonyl)-1H-pyrrol-3-yl]acrylamide] was tested. Which IC50 did it give?
Its IC50 is 0.014 to 6.7 µM.

How did the IC50 turn out when O=C(/C=C/c1ccn(S(=O)(=O)c2ccc(-c3cccc(OCCCN4CCOCC4)c3)cc2)c1)NO [Compound 74, (E)-N-Hydroxy-3-{1-[3′-(3-morpholin-4-yl-propoxy)-biphenyl-4-sulfonyl]-1H-pyrrol-3-yl}-acrylamide] was run?
The IC50 was 0.014 to 6.7 µM.

For O=C(/C=C/c1ccn(S(=O)(=O)c2ccc(-c3cccc(C(F)(F)F)c3)cc2)c1)NO [Compound 85, (E)-N-Hydroxy-3-[1-(3′-trifluoromethyl-biphenyl-4-sulfonyl)-1H-pyrrol-3-yl]acrylamide], which IC50 is on record?
The IC50 was 0.014 to 6.7 µM.

COc1ccc(-c2ccc(S(=O)(=O)n3ccc(/C=C/C(=O)NO)c3)cc2)cc1 [Compound 82, (E)-N-Hydroxy-3-[1-(4′-methoxy-biphenyl-4-sulfonyl)-1H-pyrrol-3-yl]-acrylamide] was tested. Which IC50 did it give?
Its IC50 is 0.014 to 6.7 µM.

For O=C(/C=C/c1ccn(S(=O)(=O)c2ccc(-c3cn(CCN4CCOCC4)nn3)cc2)c1)NO [Compound 83, (E)-N-Hydroxy-3-(1-{4-[1-(2-morpholin-4-yl-ethyl)-1H-[1,2,3]triazol-4-yl]-benzenesulfonyl}-1H-pyrrol-3-yl)-acrylamide], which IC50 is on record?
Its IC50 is 0.014 to 6.7 µM.

With CN1CCN(CCCOc2ccc(-c3ccc(S(=O)(=O)n4ccc(/C=C/C(=O)NO)c4)cc3)cc2)CC1 [Compound 79, (E)-N-Hydroxy-3-(1-{4′-[3-(4-methyl-piperazin-1-yl)-propoxy]-biphenyl-4-sulfonyl}-1H-pyrrol-3-yl)-acrylamide] as the compound, how does the IC50 read?
The IC50 was 0.014 to 6.7 µM.

O=C(/C=C/c1ccn(S(=O)(=O)c2ccc(-c3ccc(OCCN4CCCC4)cc3)nc2)c1)NO [Compound 92, (E)-N-Hydroxy-3-(1-{6-[4-(2-pyrrolidin-1-yl-ethoxy)-phenyl]-pyridine-3-sulfonyl}-1H-pyrrol-3-yl)-acrylamide] was tested. Which IC50 did it give?
The IC50 was 0.014 to 6.7 µM.

For Nc1ccccc1NC(=O)/C=C/c1ccn(S(=O)(=O)c2ccc(-c3ccc(OCCN4CCCC4)cc3)cc2)c1 [Compound 108, (E)-N-(2-Amino-phenyl)-3-{1-[4′-(2-pyrrolidin-1-yl-ethoxy)-biphenyl 4-sulfonyl]-1H-pyrrol-3-yl}-acrylamide], which IC50 is on record?
Its IC50 is 0.014 to 6.7 µM.

Which IC50 does the source give for CN1CCN(CCCOc2cccc(-c3ccc(S(=O)(=O)n4ccc(/C=C/C(=O)NO)c4)cc3)c2)CC1 [Compound 73, (E)-N-Hydroxy-3-(1-{3′-[3-(4-methyl-piperazin-1-yl)-propoxy]-biphenyl-4-sulfonyl}-1H-pyrrol-3-yl)-acrylamide] here?
Its IC50 is 0.014 to 6.7 µM.

Nc1cccc(-c2ccc(S(=O)(=O)n3ccc(/C=C/C(=O)NO)c3)cc2)c1 [Compound 66, (E)-3-[1-(3′-Amino-biphenyl-4-sulfonyl)-1H-pyrrol-3-yl]-N-hydroxy-acrylamide] was tested. Which IC50 did it give?
Its IC50 is 0.014 to 6.7 µM.

With O=C(/C=C/c1ccn(S(=O)(=O)c2ccc(-c3cccc(OCCN4CCCC4)c3)cc2)c1)NO [Compound 80, (E)-N-Hydroxy-3-{1-[3′-(2-pyrrolidin-1-yl-ethoxy)-biphenyl-4-sulfonyl]-1H-pyrrol-3-yl}-acrylamide] as the compound, how does the IC50 read?
Its IC50 is 0.014 to 6.7 µM.

For CN1CCN(c2cc(-c3ccc(S(=O)(=O)n4ccc(/C=C/C(=O)NO)c4)cn3)ccn2)CC1 [Compound 103, (E)-N-Hydroxy-3-{1-[2′-(4-methyl-piperazin-1-yl)-[2,4′]bipyridinyl-5-sulfonyl]-1H-pyrrol-3-yl}-acrylamide], which IC50 is on record?
The IC50 was 0.014 to 6.7 µM.

Which IC50 does the source give for O=C(C=Cc1ccn(S(=O)(=O)c2ccc(-c3ccc(OCCN4CCCC4)cc3)s2)c1)NO [Compound 99, (E)-N-Hydroxy-3-(1-{5-([4-(2-pyrrolidin-1-yl-ethoxy)-phenyl]-thiophene-2-sulfonyl}-1H-pyrrol-3-yl)-acrylamide] here?
The IC50 was 0.014 to 6.7 µM.

How did the IC50 turn out when O=C(/C=C/c1ccn(S(=O)(=O)c2ccc(-c3ccc(OCCCN4CCCC4)cc3)cc2)c1)NO [Compound 81, (E)-N-Hydroxy-3-{1-[4′-(3-pyrrolidin-1-yl-propoxy)-biphenyl-4-sulfonyl]-1H-pyrrol-3-yl}-acrylamide] was run?
The IC50 was 0.014 to 6.7 µM.

O=C(/C=C/c1ccn(S(=O)(=O)c2ccc(-c3ccc4c(c3)CCO4)cc2)c1)NO [Compound 70, (E)-3-{1-[4-(2,3-Dihydro-benzofuran-5-yl)-benzenesulfonyl]-1H-pyrrol-3-yl}-N-hydroxy-acrylamide] was tested. Which IC50 did it give?
The IC50 was 0.014 to 6.7 µM.

How did the IC50 turn out when CN1CCN(c2cc(-c3ccc(S(=O)(=O)n4ccc(/C=C/C(=O)Nc5ccccc5N)c4)s3)ccn2)CC1 [Compound 106, (E)-N-(2-Amino-phenyl)-3-(1-{5-[2-(4-methyl-piperazin-1-yl)-pyridin-4-yl]-thiophene-2-sulfonyl}-1H-pyrrol-3-yl)-acrylamide] was run?
Its IC50 is 0.014 to 6.7 µM.

How did the IC50 turn out when NCc1cccc(-c2ccc(S(=O)(=O)n3ccc(/C=C/C(=O)NO)c3)s2)c1 [Compound 94, (E)-3-{1-[5-(3-Aminomethyl-phenyl)-thiophene-2-sulfonyl]-1H-pyrrol-3-yl}-N-hydroxy-acrylamide] was run?
The IC50 was 0.014 to 6.7 µM.

With O=C(/C=C/c1ccn(S(=O)(=O)c2ccc(-c3ccc(OCCCN4CCOCC4)cc3)cc2)c1)NO [Compound 78, (E)-N-Hydroxy-3-{1-[4′-(3-morpholin-4-yl-propoxy)-biphenyl-4-sulfonyl]-1H-pyrrol-3-yl}-acrylamide] as the compound, how does the IC50 read?
The IC50 was 0.014 to 6.7 µM.

How did the IC50 turn out when O=C(/C=C/c1ccn(S(=O)(=O)c2ccc(-c3cccc(OCCCN4CCCC4)c3)cc2)c1)NO [Compound 72, (E)-N-Hydroxy-3-{1-[3′-(3-pyrrolidin-1-yl-propoxy)-biphenyl-4-sulfonyl]-1H-pyrrol-3-yl}-acrylamide] was run?
The IC50 was 0.014 to 6.7 µM.

CN1CCC(CCOc2ccc(-c3ccc(S(=O)(=O)n4ccc(C=CC(=O)NO)c4)cc3)cc2)CC1 [Compound 68, (E)-N-Hydroxy-3-(1,4′-[2-(1-methyl-piperidin-4-yl)-ethoxy]biphenyl-4-sulfonyl)-1H-pyrrol-3-yl)-acrylamide] was tested. Which IC50 did it give?
Its IC50 is 0.014 to 6.7 µM.

With CN(C)Cc1ccc(-c2ccc(S(=O)(=O)n3ccc(/C=C/C(=O)Nc4ccccc4N)c3)s2)cc1 [Compound 95, (E)-N-(2-Amino-phenyl)-3-{1-[5-(4-dimethylaminomethyl-phenyl)-thiophene-2-sulfonyl]-1H-pyrrol-3-yl}-acrylamide] as the compound, how does the IC50 read?
Its IC50 is 0.014 to 6.7 µM.

O=C(/C=C/c1ccn(S(=O)(=O)c2ccc(-c3ccc(N4CCOCC4)cc3)cc2)c1)NO [Compound 71, (E)-N-Hydroxy-3-[1-(4′-morpholin-4-yl-biphenyl-4-sulfonyl)-1H-pyrrol-3-yl]-acrylamide] was tested. Which IC50 did it give?
Its IC50 is 0.014 to 6.7 µM.

O=C(/C=C/c1ccn(S(=O)(=O)c2ccc(-c3ccc4c(c3)OCO4)cc2)c1)NO [Compound 65, (E)-3-[1-(4-Benzo[1,3]dioxol-5-yl-benzenesulfonyl)-1H-pyrrol-3-yl]-N-hydroxy-acrylamide] was tested. Which IC50 did it give?
The IC50 was 0.014 to 6.7 µM.

For CN(C)S(=O)(=O)c1ccc(-c2ccc(S(=O)(=O)n3ccc(/C=C/C(=O)NO)c3)s2)cc1 [Compound 100, (E)-3-{1-[5-(4-Dimethylsulfamoyl-phenyl)-thiophene-2-sulfonyl]-1H-pyrrol-3-yl}-N-hydroxy-acrylamide], which IC50 is on record?
The IC50 was 0.014 to 6.7 µM.

How did the IC50 turn out when O=C(/C=C/c1ccn(S(=O)(=O)c2ccc(-c3cccc(CN4CCOCC4)c3)cc2)c1)NO [Compound 64, (E)-N-Hydroxy-3-[1-(3′-morpholin-4-ylmethyl-biphenyl-4-sulfonyl)-1H-pyrrol-3-yl]-acrylamide] was run?
Its IC50 is 0.014 to 6.7 µM.

With O=C(/C=C/c1ccn(S(=O)(=O)c2ccc(-c3ccc(CNC4CCCC4)cc3)cc2)c1)NO [Compound 84, (E)-3-[1-(4′-Cyclopentylaminomethyl-biphenyl-4-sulfonyl)-1H-pyrrol-3-yl]-N-hydroxy-acrylamide] as the compound, how does the IC50 read?
The IC50 was 0.014 to 6.7 µM.

For CS(=O)(=O)NCc1ccc(-c2ccc(S(=O)(=O)n3ccc(/C=C/C(=O)Nc4ccccc4N)c3)cc2)cc1 [Compound 98, (E)-N-(2-Amino-phenyl)-3-{1-[4′-(methanesulfonylamino-methyl)biphenyl-4-sulfonyl]-1H-pyrrol-3-yl}-acrylamide], which IC50 is on record?
The IC50 was 0.014 to 6.7 µM.

For NCc1ccc(-c2ccccc2)cc1S(=O)(=O)n1ccc(/C=C/C(=O)NO)c1 [Compound 91, (E)-3-[1-(4-Aminomethyl-biphenyl-3-sulfonyl)-1H-pyrrol-3-yl]-N-hydroxy-acrylamide], which IC50 is on record?
Its IC50 is 0.014 to 6.7 µM.

How did the IC50 turn out when Cc1nc(-c2ccc(S(=O)(=O)n3ccc(/C=C/C(=O)NO)c3)s2)cs1 [Compound 90, (E)-N-Hydroxy-3-{1-[5-(2-methyl-thiazol-4-yl)-thiophene-2-sulfonyl]-1H-pyrrol-3-yl}-acrylamide] was run?
Its IC50 is 0.014 to 6.7 µM.

How did the IC50 turn out when CN(C)Cc1ccc(-c2cccc(S(=O)(=O)n3ccc(/C=C/C(=O)Nc4ccccc4N)c3)c2)cc1 [Compound 102, (E)-N-(2-Amino-phenyl)-3-[1-(4′-dimethylaminomethyl-biphenyl-3-sulfonyl)-1H-pyrrol-3-yl]-acrylamide] was run?
Its IC50 is 0.014 to 6.7 µM.
